Here are results for one molecule from BindingDB's records for doi:10.1016/S0960-894X(01)81219-1 (1993).

A short description of the test: The inhibitory constant was evaluated against Endothelin A receptor in rabbit renal artery tissue.

Usually IC50 stands for the concentration that gives 50% inhibition. Regarding `CC[C@H](C)[C@H](NC(=O)[C@H](CC(=O)O)NC(=O)[C@H](CCCN)NC(=O)[C@@H](Cc1c[nH]c2ccccc12)NC(C)=O)C(=O)N[C@H](C(=O)N[C@@H](Cc1c[nH]c2ccccc12)C(=O)O)[C@@H](C)CC` [(S)-3-{(S)-2-[(R)-2-Acetylamino-3-(1H-indol-3-yl)-propionylamino]-5-amino-pentanoylamino}-N-((1S,2R)-1-{(1S,2R)-1-[(S)-1-carboxy-2-(1H-indol-3-yl)-ethylcarbamoyl]-2-methyl-butylcarbamoyl}-2-methyl-butyl)-succinamic acid], half-maximal inhibition (IC50) required 0.13 µM.
